Patent EP4656640A1, “IRAK4 DEGRADER AND USE THEREOF” (Shanghai Qilu Pharmaceutical Research and Development …, priority 2023, dated 2024)
Read-outs that look alike come from different tables or passages of the source.

How the values were obtained:
IRAK4 [1] = target: T1, IRAK4 (Homo sapiens, UniProt Q9NWZ3); experiment: Degradation of IRAK4 in SU-DHL-2 cells (flow cytometry); type: cell-based; parameters: The degradation level of IRAK4 protein in SU-DHL-2 cell line by the compounds was detected by flow cytometry; endogenous in cells; host or cells: SU-DHL-2; OCI-LY3; details: SU-DHL-2 cells, 24 hours incubation; read-out: SU-DHL-2 DC50
T1 sequence (Q9NWZ3 1-460): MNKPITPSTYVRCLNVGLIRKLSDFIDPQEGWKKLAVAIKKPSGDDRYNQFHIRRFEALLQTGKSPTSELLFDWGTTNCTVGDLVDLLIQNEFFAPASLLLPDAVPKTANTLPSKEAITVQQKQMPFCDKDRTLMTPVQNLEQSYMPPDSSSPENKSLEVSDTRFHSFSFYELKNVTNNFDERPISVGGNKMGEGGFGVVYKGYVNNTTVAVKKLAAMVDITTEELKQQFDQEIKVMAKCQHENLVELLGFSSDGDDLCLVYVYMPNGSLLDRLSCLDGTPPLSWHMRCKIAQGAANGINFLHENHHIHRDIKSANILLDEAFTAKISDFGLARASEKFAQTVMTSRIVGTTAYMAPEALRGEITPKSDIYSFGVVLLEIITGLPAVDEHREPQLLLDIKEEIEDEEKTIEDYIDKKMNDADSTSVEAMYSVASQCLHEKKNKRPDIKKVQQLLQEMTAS

TNFα secretion = experiment: Inhibition of induced TNFα secretion in human PBMCs (CBA); type: cell-based; details: PBMC
Description: The effect of PROTAC small molecules on inflammatory factors in PBMCs downstream of IRAK4 induced by TLR and IL-1 was detected based on the CBA (cytometric bead array) method.
Step 2: The density of PBMCs was adjusted to 1 E6/mL, and 150 µL of PBMCs in 1640 complete medium were seeded into a 96-well plate, followed by incubation at 37°C for 1 hour.
Step 3: 50 µL of serially diluted small molecule (working concentration: 10000 nM, 1:3 dilution) drugs were inoculated into the plate in a 37°C incubator for 8 hours.
Step 4: 10 µL of stimulants were added respectively, with final concentrations of 100 ng/mL for LPS, 1 µg/mL for R848, and 100 ng/mL for IL-1β.
Step 5: CBA assay. The concentrations of IL-6 and TNF-α in the cell culture supernatant were determined using Hu IL-6 CBA Flex Set A7 and Hu TNF- CBA Flex Set D9.
Step 6: Standard samples were prepared: 2500 pg/mL, 1250 pg/mL,...0. A 1:2 serial dilution was performed to obtain 10 concentrations.
Step 7: The mixed capture beads were resuspended in capture bead diluent (1:50), and cell culture supernatant (50 µL) was added, followed by incubation at room temperature for 10 minutes.
Step 8: The detection reagent prepared with detection diluent was added, and the mixture was incubated in the dark at room temperature for 3 hours. At the end of incubation, the samples were washed once with wash buffer and resuspended for detection.
The concentrations of IL-6 and TNFα were calculated using the standard curve method. Data presentation and IC50 calculation were performed using Prism 8.0.2.

[2] = Dog pharmacokinetics, oral gavage (Experiment 3); type: in vivo; details: Beagle dogs, oral gavage 2.5 mg/kg, plasma
Description: Healthy Beagle dogs, male, weighing about 8-10 kg, 3 animals per group.
The animals were not fasted and had free access to water.
Venous blood (0.5-0.8 mL) was collected at 15 minutes, 30 minutes, 1 hour, 2 hours, 4 hours, 8 hours, and 24 hours after oral gavage administration, placed in K2EDTA tubes, and centrifuged at 4°C to separate plasma. The concentration of the compound in plasma was determined by liquid chromatography-tandem mass spectrometry.
The main pharmacokinetic parameters were calculated using WinNonlin. […] Table 8. Pharmacokinetic parameters of some compounds of the present disclosure administered orally to dogs

IRAK4 [3] = target: T1, IRAK4; experiment: Degradation of IRAK4 in monocytes of human PBMCs (flow cytometry); type: cell-based; parameters: endogenous in cells; details: human PBMC monocytes, 24 hours incubation
Description: The degradation level of IRAK4 in monocytes of human peripheral blood mononuclear cells (hPBMCs) was detected by flow cytometry.
On day 1, the cells were seeded at a density of 2 × 10^5 cells per well in 100 µL in a 96-well plate.
The compounds were dissolved in DMSO to a final concentration of 10 mM, and then diluted with culture medium at a 1:5 concentration gradient to prepare 10 concentrations. The diluted solutions were added to the cells to obtain a maximum final concentration of 2 µM. Wells containing cells treated with 0.1% DMSO served as the positive control
The cells were incubated at 37°C in a 5% CO2 incubator for 24 hours.
The cells were stained for viability discrimination using the LIVE/DEAD™ Fixable Blue Dead Cell Stain Kit, and surface staining of monocytes was performed with PE Mouse Anti-Human CD14, followed by incubation at 4°C for 30 minutes.
Fix buffer I, equal in volume to the cultured cells, was added, and the cells were fixed at 37°C for 10 minutes.
150 µL of Perm III reagent was added, and the cells were incubated at 4°C for 30 minutes to permeabilize the membranes.
Flow cytometry analysis was performed using a flow cytometer.
The flow cytometry data were analyzed using Flowjo software. Data presentation and DC50 calculation were performed using Prism 8.0.2 (GraphPad).

[4] = IL-1β 100 ng/mL, read-out: IC50, TNFα secretion induced by IL-1β
[5] = LPS 100 ng/mL, read-out: IC50, TNFα secretion induced by LPS
[6] = R848 1 µg/mL, read-out: IC50, TNFα secretion induced by R848

Cn1c(=O)n(C2CCC(=O)NC2=O)c2cccc(C#CCCN3CCC4(CC3)CC(n3cc(NC(=O)c5cnn6ccc(N7C[C@H]8C[C@@H]7CO8)nc56)c(C(F)F)n3)C4)c21 (stereo partly drawn) [Example 22]
DC50 (IRAK4 [1]): 1.4 nM
IC50 (TNFα secretion; [4]): 0.16 nM
IC50 (TNFα secretion; [5]): 1.2 nM
IC50 (TNFα secretion; [6]): 1.4 nM
AUC(0-t) at 24 h [2]: 1190 ng·h/mL
Cmax [2]: 100 ng/mL
MRT inf [2]: 11.2 h
half-life [2]: 7.6 h
DC50 (IRAK4 [3]): 0.13 nM

Cn1c(=O)n(C2CCC(=O)NC2=O)c2cccc(C#CCOC34CCC(CN5CCC6(CC5)CC(n5cc(NC(=O)c7cnn8ccc(N9C[C@H]%10C[C@@H]9CO%10)nc78)c(C(F)F)n5)C6)(CC3)CC4)c21 (stereo partly drawn) [Example 52]
DC50 (IRAK4 [1]): 3 nM
IC50 (TNFα secretion; [4]): 13.9 nM
IC50 (TNFα secretion; [5]): 8.5 nM
IC50 (TNFα secretion; [6]): 21.5 nM
AUC(0-t) at 24 h [2]: 1160 ng·h/mL
Cmax [2]: 78 ng/mL
MRT inf [2]: 20.2 h
half-life [2]: 13.4 h
DC50 (IRAK4 [3]): 0.65 nM
